Source: ChEMBL document CHEMBL4732046, “A red-light-activated sulfonamide porphycene for highly efficient photodynamic therapy against hypoxic tumor” (Eur J Med Chem, 2021)
Activity calls are given as the source filed them.

What was measured:
A-375 [1] = assay: Induction of morphological changes in human A-375 cells assessed as chromatin condensation at 100 to 300 nM incubated for 24 hrs by Hoechst 33258 staining based assay; assay type: functional, cell-based; details: dose 100-300 nM
B16 [2] = assay: Induction of apoptosis in mouse B16 cells assessed as increase in Bax level at 200 to 400 nM irradiated with 640 +/- 15 nm red LED for 1 hrs measured after 24 hrs by Western blot analysis; assay type: functional, cell-based; details: dose 200-400 nM
[3] = Drug uptake in human A-375 cells lysosome after 24 hrs by Lyso-Tracker Red dye based confocal microscopic method; assay type: ADME, subcellular; details: a-375, 24 h
B16 [4] = assay: Induction of apoptosis in mouse B16 cells assessed as decrease in Bid level at 200 to 400 nM irradiated with 640 +/- 15 nm red LED for 1 hrs measured after 24 hrs by Western blot analysis; assay type: functional, cell-based; details: dose 200-400 nM
A-375 [5] = assay: Induction of apoptosis in human A-375 cells assessed as apoptotic cells at 300 nM […] irradiated with 640 +/- 15 nm red LED for 1 hrs after 24 hrs by Annexin V-FITC/propidium iodide staining based flow cytometric analysis relative to control; assay type: functional, cell-based
[6] = Toxicity in C57BL/6 mouse assessed as effect on aspartate aminotransferase level measured after 7 days; details: in vivo, 168 h, time 7 day
B16 [7] = assay: Antiproliferative activity against mouse B16 cells assessed as inhibition of cell proliferation irradiated with 640 +/- 15 nm red LED for 4 hrs in presence of 30 uM L-histidine measured after 24 hrs by MTT assay; assay type: functional, cell-based
B16 [8] = assay: Antiproliferative activity against mouse B16 cells assessed as inhibition of cell proliferation irradiated with 640 +/- 15 nm red LED for 4 hrs in presence of 30 uM L-histidine measured after 24 hrs under hypoxic condition by MTT assay; assay type: functional, cell-based
B16 [9] = assay: Induction of apoptosis in mouse B16 cells assessed as apoptotic cells at 200 nM irradiated with 640 +/- 15 nm red LED for 1 hrs after 24 hrs by Annexin V-FITC/propidium iodide staining based flow cytometric analysis relative to control; assay type: functional, cell-based
A-375 [10] = assay: Induction of apoptosis in human A-375 cells assessed as increase in Bad level at 100 to 300 nM irradiated with 640 +/- 15 nm red LED for 1 hrs measured after 24 hrs by Western blot analysis; assay type: functional, cell-based; details: dose 100-300 nM
KYSE-70 cell line = assay: Photocytotoxicity against human KYSE-70 cells assessed as reduction in cell viability irradiated with 640 +/- 15 nm red LED for 4 hrs measured after 24 hrs by MTT assay; assay type: functional, cell-based; details: KYSE-70, light or radiation study
A-375 [11] = assay: Induction of apoptosis in human A-375 cells assessed as apoptotic cells at 100 nM irradiated with 640 +/- 15 nm red LED for 1 hrs after 24 hrs by Annexin V-FITC/propidium iodide staining based flow cytometric analysis relative to control; assay type: functional, cell-based
A-375 [12] = assay: Induction of morphological changes in human A-375 cells assessed as nuclear shrinkage at 100 to 300 nM incubated for 24 hrs by Hoechst 33258 staining based assay; assay type: functional, cell-based; details: dose 100-300 nM
HeLa = assay: Photo-therapeutic index, ratio of LD50 for photocytotoxicity against human HeLa cells assessed as reduction in cell viability irradiated with 640 +/- 15 nm red LED for 4 hrs measured after 24 hrs by MTT assay to LD50 for cytotoxicity against human HeLa cells assessed as cell viability in dark measured after 24 hrs by MTT assay; assay type: functional
[13] = Toxicity in C57BL/6 mouse assessed as effect on creatine kinase level measured upto 14 days; details: in vivo, 336 h, time <=14 day
A-375 [14] = assay: Antiproliferative activity against human A-375 cells assessed as inhibition of cell proliferation irradiated with 640 +/- 15 nm red LED for 4 hrs in presence of 30 uM L-histidine measured after 24 hrs by MTT assay; assay type: functional, cell-based
A-375 [15] = assay: Induction of intracellular reactive oxygen species production in human A-375 cells irradiated with 640 +/- 15 nm red LED for 1 hrs measured after 4 hrs by DCFH-DA probe based flow cytometry; assay type: functional, cell-based; details: dose nM <=300, time 4.0 hrs
A-375 [16] = assay: Antitumor activity against human A-375 cells xenografted in BALB/c mouse assessed as tumor growth inhibition by measuring nuclear TUNEL-positive treated at high dose intratumorally once every 2 days for 2 weeks followed every dosing irradiated with 640 +/- 15 nm red LED for 4 hrs measured after 14 days treatment; assay type: functional, cell-based; details: time 14.0 day
B16 [17] = assay: Antitumor activity against mouse B16 cells xenografted in C57BL/6 mouse assessed as tumor growth inhibition by measuring nuclear TUNEL-positive treated at high dose intratumorally once every 2 days for 2 weeks followed every dosing irradiated with 640 +/- 15 nm red LED for 4 hrs measured after 14 days treatment; assay type: functional, cell-based; details: time 14.0 day
[18] = Toxicity in C57BL/6 mouse assessed as effect on serum creatinine level measured upto 14 days; details: in vivo, 336 h, time <=14 day
A-375 [19] = assay: Antiproliferative activity against human A-375 cells assessed as inhibition of cell proliferation irradiated with 640 +/- 15 nm red LED for 4 hrs in presence of 30 uM D-mannitol measured after 24 hrs by MTT assay; assay type: functional, cell-based
[20] = Toxicity in C57BL/6 mouse model assessed as effect on kidney treated intratumorally once every 2 days for 2 weeks followed every dosing irradiated with 640 +/- 15 nm red LED for 4 hrs measured upto 28 days by H and E staining dependent light microscopy based histopathological analysis; assay type: tissue-based; details: in vivo, other, time <=28 day
[21] = Toxicity in C57BL/6 mouse assessed as effect on alanine aminotransferase level measured after 7 days; details: in vivo, 168 h, time 7 day
[22] = Drug uptake in mouse B16 cells lysosome after 24 hrs by Lyso-Tracker Red dye based confocal microscopic method; assay type: ADME, subcellular; details: b16, 24 h
[23] = Drug uptake in mouse B16 cells upto 2 hrs by flow cytometric analysis; assay type: ADME, cell-based; details: b16, 2 h
B16 [24] = assay: Antiproliferative activity against mouse B16 cells assessed as inhibition of cell proliferation irradiated with 640 +/- 15 nm red LED for 4 hrs in presence of 30 uM D-mannitol measured after 24 hrs under hypoxic condition by MTT assay; assay type: functional, cell-based
B16 [25] = assay: Induction of apoptosis in mouse B16 cells assessed as apoptotic cells at 400 nM irradiated with 640 +/- 15 nm red LED for 1 hrs after 24 hrs by Annexin V-FITC/propidium iodide staining based flow cytometric analysis relative to control; assay type: functional, cell-based
B16 [26] = assay: Photocytotoxicity against mouse B16 cells assessed as reduction in cell viability irradiated with 640 +/- 15 nm red LED for 4 hrs measured after 24 hrs by MTT assay; assay type: functional, cell-based; details: B16, light or radiation study
[27] = Toxicity in C57BL/6 mouse model assessed as effect on spleen treated intratumorally once every 2 days for 2 weeks followed every dosing irradiated with 640 +/- 15 nm red LED for 4 hrs measured upto 28 days by H and E staining dependent light microscopy based histopathological analysis; assay type: tissue-based; details: in vivo, other, time <=28 day
[28] = Toxicity in C57BL/6 mouse model assessed as effect on lungs treated intratumorally once every 2 days for 2 weeks followed every dosing irradiated with 640 +/- 15 nm red LED for 4 hrs measured upto 28 days by H and E staining dependent light microscopy based histopathological analysis; details: in vivo, other, time <=28 day
A-375 [29] = assay: Antiproliferative activity against human A-375 cells assessed as inhibition of cell proliferation irradiated with 640 +/- 15 nm red LED for 4 hrs in presence of 30 uM L-histidine measured after 24 hrs under hypoxic condition by MTT assay; assay type: functional, cell-based

CC(C)(C)C1=Cc2nc1ccc1[nH]c(cc1S(=O)(=O)NCCOCCO)c1nc(ccc3[nH]c2cc3C(C)(C)C)C(C(C)(C)C)=C1
Active: Drug uptake [3] | Drug uptake [22] | Drug uptake [23]
Non-Toxic: Activity [13] | Activity [18] | Activity [20] | Activity [27] | Activity [28]
31 nM: DC50 (KYSE-70 cell line)
inactive: Activity (A-375 [19]) | Activity (B16 [24])
active: Activity (A-375 [1]) | Activity (B16 [2]) | Activity (B16 [4]) | Activity (A-375 [5]) | Activity (B16 [7]) | Activity (B16 [8]) | Activity (B16 [9]) | Activity (A-375 [10]) | Activity (A-375 [11]) | Activity (A-375 [12]) | Activity (A-375 [14]) | Activity (A-375 [15]) Dose-dependent effect | Activity (A-375 [16]) | Activity (B16 [17]) | Activity (B16 [25]) | Activity (A-375 [29])
Toxic: Activity [6] | Activity [21]
323 nM: DC50 (B16 [26])
>2040: Ratio (HeLa)
